Measurements taken from paper PMC10263468, “Biosynthesis of cannabigerol and cannabigerolic acid: the gateways to further cannabinoid production” (Synthetic Biology, 2023).

How the values were obtained:
Assay in all cases: endpoint assay, LC-MS quantification of product
AtaPT [1] = target: T1, AtaPT (Aspergillus terreus, UniProt A0A1B0UHJ4, E91A); assay type: biochemical; conditions: read-out: Apparent Km; co-substrate GPP 1 mM; 1 μM enzyme; 25 mM Tris pH 8, 150 mM NaCl, 5% glycerol; 25°C; approximate constant
T1 construct: gene PT; N-terminal His6 tag (pETM11), codon-optimised synthetic gene, E. coli ArcticExpress (DE3), purified
Excerpt: (§1) endpoint assay, LC-MS quantification of product on AtaPT

AtaPT [2] = target: T2, AtaPT (Aspergillus terreus, UniProt A0A1B0UHJ4, E91D); assay type: biochemical; conditions: read-out: Apparent Km; co-substrate GPP 1 mM; 1 μM enzyme; 25 mM Tris pH 8, 150 mM NaCl, 5% glycerol; 25°C; approximate constant
T2 construct: gene PT; N-terminal His6 tag (pETM11), codon-optimised synthetic gene, E. coli ArcticExpress (DE3), purified
Excerpt: as §1

AtaPT [3] = target: T3, AtaPT (Aspergillus terreus, UniProt A0A1B0UHJ4, E91Q); assay type: biochemical; conditions: read-out: Apparent Km; co-substrate GPP 1 mM; 1 μM enzyme; 25 mM Tris pH 8, 150 mM NaCl, 5% glycerol; 25°C; approximate constant
T3 construct: gene PT; N-terminal His6 tag (pETM11), codon-optimised synthetic gene, E. coli ArcticExpress (DE3), purified
Excerpt: as §1

[4] = test system: CCCCCc1cc(O)cc(O)c1C(=O)O; assay type: biochemical, Aspergillus terreus; conditions: co-substrate GPP 1 mM, 10 μM enzyme, 25 mM Tris pH 8, 150 mM NaCl, 5% glycerol, 25°C, approximate constant (high enzyme concentration)
Excerpt: as §1

T1 sequence (A0A1B0UHJ4 whole entry E91A): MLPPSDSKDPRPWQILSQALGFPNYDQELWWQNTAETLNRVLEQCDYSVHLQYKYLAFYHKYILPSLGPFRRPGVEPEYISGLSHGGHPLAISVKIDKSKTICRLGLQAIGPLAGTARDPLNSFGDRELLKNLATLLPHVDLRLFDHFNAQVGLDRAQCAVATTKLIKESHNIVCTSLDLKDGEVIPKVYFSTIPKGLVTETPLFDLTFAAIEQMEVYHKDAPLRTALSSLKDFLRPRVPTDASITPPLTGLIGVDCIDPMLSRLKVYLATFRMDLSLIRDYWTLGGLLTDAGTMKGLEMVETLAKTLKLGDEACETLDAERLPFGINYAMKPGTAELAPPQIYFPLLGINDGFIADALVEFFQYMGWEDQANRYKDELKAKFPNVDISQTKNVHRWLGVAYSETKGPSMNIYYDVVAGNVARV
T3 sequence (A0A1B0UHJ4 whole entry E91Q): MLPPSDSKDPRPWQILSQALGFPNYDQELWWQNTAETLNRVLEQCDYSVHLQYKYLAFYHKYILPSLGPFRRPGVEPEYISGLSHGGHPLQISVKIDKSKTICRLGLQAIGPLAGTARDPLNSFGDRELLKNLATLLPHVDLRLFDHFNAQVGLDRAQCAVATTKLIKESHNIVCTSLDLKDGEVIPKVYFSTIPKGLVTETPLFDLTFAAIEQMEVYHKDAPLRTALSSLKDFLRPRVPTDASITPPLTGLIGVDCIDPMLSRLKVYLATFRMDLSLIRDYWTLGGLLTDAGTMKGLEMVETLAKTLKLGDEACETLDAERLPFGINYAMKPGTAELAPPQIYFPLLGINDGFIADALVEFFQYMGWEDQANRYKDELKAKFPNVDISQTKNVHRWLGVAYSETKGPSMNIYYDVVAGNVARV
T2 sequence (A0A1B0UHJ4 whole entry E91D): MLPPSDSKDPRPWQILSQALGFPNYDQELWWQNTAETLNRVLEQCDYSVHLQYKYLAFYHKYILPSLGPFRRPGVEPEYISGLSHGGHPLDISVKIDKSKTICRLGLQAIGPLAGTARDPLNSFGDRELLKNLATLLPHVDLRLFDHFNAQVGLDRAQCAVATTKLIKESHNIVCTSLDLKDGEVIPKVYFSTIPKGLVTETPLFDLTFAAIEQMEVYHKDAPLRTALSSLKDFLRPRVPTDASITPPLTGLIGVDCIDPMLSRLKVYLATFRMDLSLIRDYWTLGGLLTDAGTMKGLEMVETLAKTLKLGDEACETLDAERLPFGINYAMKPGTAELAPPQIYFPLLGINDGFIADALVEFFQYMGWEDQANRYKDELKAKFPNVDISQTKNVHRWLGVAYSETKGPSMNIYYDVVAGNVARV

Compound | Km (AtaPT [1]) [µM] | Km (AtaPT [2]) [µM] | Km (AtaPT [3]) [µM] | Km [4] [µM] | kcat [4] [s⁻¹]
CCCCCc1cc(O)cc(O)c1C(=O)O [OA, olivetolic acid] | 332 ± 96 | 266 ± 44 | 94 ± 32 | – | –
AtaPT (Aspergillus terreus) | – | – | – | 1083 ± 126 | 0.000147 ± 5e-06
